Series [1] deals with NAD-dependent histone deacetylase SIR2 (Saccharomyces cerevisiae S288c) (UniProt P06700). The series can be described thus: Inhibition of Sir 2 protein mediated transcriptional silencing at the telomeric locus in yeast at 30 uM after 24 to 48 hrs by URA3 reporter gene assay.
Series [2] shares this target. The series can be described thus: Inhibition of Sir 2 protein mediated transcriptional silencing at the telomeric locus in yeast at 100 uM after 24 to 48 hrs by URA3 reporter gene assay.
The target is the same in series [3]. The series can be described thus: Inhibition of Sir 2 protein mediated transcriptional silencing at the telomeric locus in yeast at 50 uM after 24 to 48 hrs by URA3 reporter gene assay.
Series [4] relates to Saccharomyces cerevisiae. The series can be described thus: Cytotoxicity against yeast at 50 uM. The series is classed as organism-based. To be noted: in vivo.
The target in series [5] is NAD-dependent histone deacetylase SIR2 (Saccharomyces cerevisiae S288c) (UniProt P06700). The experiment in a line: Inhibition of Sir 2 protein mediated transcriptional silencing at the telomeric locus in yeast after 24 to 48 hrs by URA3 reporter gene assay.
Series [6] shares this target. The experiment in a line: Inhibition of Sir 2 protein mediated transcriptional silencing at the telomeric locus in yeast at 10 uM after 24 to 48 hrs by URA3 reporter gene assay.
For series [7] the target is unchanged. The experiment in a line: Inhibition of Sir 2 protein mediated transcriptional silencing at the telomeric locus in yeast at 1 uM after 24 to 48 hrs by URA3 reporter gene assay.

NAD-dependent histone deacetylase SIR2 (Saccharomyces cerevisiae S288c), sequence (P06700 whole entry): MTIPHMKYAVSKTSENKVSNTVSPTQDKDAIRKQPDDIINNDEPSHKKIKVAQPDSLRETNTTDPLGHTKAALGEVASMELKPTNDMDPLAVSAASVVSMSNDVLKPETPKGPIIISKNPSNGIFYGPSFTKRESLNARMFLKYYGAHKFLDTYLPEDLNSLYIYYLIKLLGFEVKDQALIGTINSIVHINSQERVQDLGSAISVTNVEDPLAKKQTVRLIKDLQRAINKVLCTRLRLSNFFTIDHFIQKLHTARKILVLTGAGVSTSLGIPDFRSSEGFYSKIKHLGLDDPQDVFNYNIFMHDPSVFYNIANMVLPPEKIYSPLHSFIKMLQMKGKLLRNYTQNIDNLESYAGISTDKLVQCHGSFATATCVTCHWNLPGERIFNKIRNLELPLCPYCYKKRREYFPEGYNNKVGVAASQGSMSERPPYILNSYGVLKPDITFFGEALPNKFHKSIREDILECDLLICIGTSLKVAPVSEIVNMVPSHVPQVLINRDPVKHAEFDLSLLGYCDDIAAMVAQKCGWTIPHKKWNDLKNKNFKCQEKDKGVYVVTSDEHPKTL

Take `COc1ccc2c(c1)cc(CN1C(=O)C3(NC(=O)c4ccccc4N3)c3ccccc31)n2S(C)(=O)=O` (stereo not drawn): the inhibition is 29% in series [1]; 67% in series [2]; 39% in series [3]; “Dose-dependent effect” in series [5]; 20% in series [6]; 9% in series [7]. For the same compound, the Activity result in series [4] is reported as “Non-toxic”.
In the case of `Cc1ccc(S(=O)(=O)n2c(CN3C(=O)C4(NC(=O)c5ccccc5N4)c4ccccc43)cc3cc(C(F)(F)F)ccc32)cc1` (stereo not drawn), in series [3], the inhibition came out at 38.4%. Also, the Activity entry in series [4] is “Non-toxic”.
In turn, `CS(=O)(=O)n1c(CN2C(=O)C3(NC(=O)c4ccccc4N3)c3ccccc32)cc2cc(C(F)(F)F)ccc21` (stereo not drawn) showed an inhibition in series [3] of 39.6%. For the same compound, the Activity result in series [4] is “Non-toxic”.
For `Cc1ccc2c(c1)cc(CN1C(=O)C3(NC(=O)c4ccccc4N3)c3ccccc31)n2S(C)(=O)=O` (stereo not drawn) the same measures were 40.9% and “Non-toxic”.
`CS(=O)(=O)n1c(CN2C(=O)C3(NC(=O)c4ccccc4N3)c3ccccc32)cc2cc(F)ccc21` (stereo not drawn) returned an inhibition in series [3] of 30.3%. In addition, the Activity result in series [4] was “Non-toxic”.
Compound `CS(=O)(=O)n1c(CN2C(=O)C3(NC(=O)c4ccccc4N3)c3ccccc32)cc2cc(Cl)ccc21` (stereo not drawn) returned an inhibition in series [3] of 30.9%. The Activity entry in series [4] is recorded as “Non-toxic”.
In the case of `CS(=O)(=O)n1c(CN2C(=O)C3(NC(=O)c4ccccc4N3)c3ccccc32)cc2ccccc21` (stereo not drawn), the inhibition in series [3] was 13.9%. Also, in series [4], the Activity result is “Non-toxic”.
As for `COc1ccc2c(c1)cc(CN1C(=O)C3(NC(=O)c4ccccc4N3)c3ccccc31)n2S(=O)(=O)c1ccc(C)cc1` (stereo not drawn), the inhibition in series [1] was 32%; in series [2], 61%; in series [3], 41%; in series [5] it was “Dose-dependent effect”; in series [6] it was 25%; in series [7], 12%. Further, in series [4], the Activity result was “Non-toxic”.
For `Cc1ccc(S(=O)(=O)n2c(CN3C(=O)C4(NC(=O)c5ccccc5N4)c4ccccc43)cc3cc(Cl)ccc32)cc1` (stereo not drawn), the inhibition in series [1] was 37%; in series [2], 56%; in series [3], 40.9%; in series [5], “Dose-dependent effect”; in series [6], 30%; in series [7], 18%. Further, the Activity entry in series [4] is “Non-toxic”.
For the compound `Cc1ccc(S(=O)(=O)n2c(CN3C(=O)C4(NC(=O)c5ccccc5N4)c4ccccc43)cc3ccccc32)cc1` (stereo not drawn), the inhibition in series [3] turned out to be 36.5%. Moreover, the Activity result in series [4] is “Non-toxic”.
For `Cc1ccc(S(=O)(=O)n2c(CN3C(=O)C4(NC(=O)c5ccccc5N4)c4ccccc43)cc3cc(C)ccc32)cc1` (stereo not drawn), the inhibition in series [3] came out at 1.2%. Further, the Activity entry in series [4] is “Non-toxic”.
In series [3], `CS(=O)(=O)n1c(CN2C(=O)C3(NC(=O)c4ccccc4N3)c3ccccc32)cc2cc(Br)ccc21` (stereo not drawn) came in with an inhibition of 38.5%. For the same compound, the Activity result in series [4] is recorded as “Non-toxic”.
For the compound `Cc1ccc(S(=O)(=O)n2c(CN3C(=O)C4(NC(=O)c5ccccc5N4)c4ccccc43)cc3cc(Br)ccc32)cc1` (stereo not drawn), the inhibition in series [3] came to 16.4%. The Activity result in series [4] is listed as “Non-toxic”.
In series [3], `Cc1ccc(S(=O)(=O)n2c(CN3C(=O)C4(NC(=O)c5ccccc5N4)c4ccccc43)cc3cc(F)ccc32)cc1` (stereo not drawn) came in with an inhibition of 15.2%. Also, in series [4], the Activity result was “Non-toxic”.

The values are drawn from ChEMBL document CHEMBL2331256, “Spiro heterocycles as potential inhibitors of SIRT1: Pd/C-mediated synthesis of novel N-indolylmethyl spiroindoline-3,2'-quinazolines” (Bioorg Med Chem Lett, 2013).
